Reference: patent US12187709B2 (Genentech, Inc., priority 2021, dated 2025)

What was measured:
[1] = biological target: Cbl-b (Homo sapiens (Human), UniProt Q13191); assay: Cbl-b LCK Ub TR-FRET assay (Cbl-b Lck HTRF); assay type: biochemical; settings: for IC50: Cbl-b LCK Ub TR-FRET; for fold-selectivity (Cbl-b over C-cbl) / (fold-selectivity) Cbl-b and C-Cbl Selectivity: ratio C-cbl Lck HTRF IC50 / Cbl-b Lck HTRF IC50
Method: (§1) 6 μL of detection mixture was added to all wells and briefly centrifuged before incubating for 20 min at room temperature. […] IC50 was generated using no LCK as the low control and DMSO as the high control.

[2] = biological target: c-Cbl (Homo sapiens (Human), UniProt P22681); assay: C-Cbl LCK Ub TR-FRET assay (C-cbl Lck HTRF); assay type: biochemical
Method: as §1

Chain of c-Cbl (P22681 47-435): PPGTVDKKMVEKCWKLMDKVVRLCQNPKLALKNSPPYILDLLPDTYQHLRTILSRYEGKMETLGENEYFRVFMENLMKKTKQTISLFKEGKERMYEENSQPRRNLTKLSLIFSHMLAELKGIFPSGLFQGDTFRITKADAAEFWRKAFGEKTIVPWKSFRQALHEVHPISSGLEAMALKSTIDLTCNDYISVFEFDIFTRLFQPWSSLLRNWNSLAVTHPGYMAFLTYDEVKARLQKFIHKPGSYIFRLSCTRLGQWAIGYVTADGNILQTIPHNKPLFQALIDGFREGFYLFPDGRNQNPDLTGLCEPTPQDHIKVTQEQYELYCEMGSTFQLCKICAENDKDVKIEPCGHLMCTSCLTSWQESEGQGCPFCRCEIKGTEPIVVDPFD
Chain of Cbl-b (Q13191 40-426): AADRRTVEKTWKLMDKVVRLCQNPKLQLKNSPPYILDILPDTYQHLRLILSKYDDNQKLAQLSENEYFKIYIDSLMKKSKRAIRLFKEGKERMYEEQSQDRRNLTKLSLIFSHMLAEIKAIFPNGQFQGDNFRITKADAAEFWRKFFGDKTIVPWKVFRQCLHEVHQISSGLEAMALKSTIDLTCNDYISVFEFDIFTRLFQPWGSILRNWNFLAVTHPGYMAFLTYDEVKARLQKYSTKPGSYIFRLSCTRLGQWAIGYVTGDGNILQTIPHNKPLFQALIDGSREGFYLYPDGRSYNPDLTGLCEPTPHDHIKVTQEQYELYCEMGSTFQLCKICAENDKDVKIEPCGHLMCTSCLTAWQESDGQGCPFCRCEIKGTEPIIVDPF

Structure (SMILES)	IC50 [1] [µM]	fold-selectivity (Cbl-b over C-cbl) [1]	IC50 [2] [µM]	IC50 ([1]; Example 121) [µM]	(fold-selectivity) Cbl-b and C-Cbl Selectivity [1] [x]
Cn1cnnc1[C@@H](CC1CCOCC1)c1cccc(N2Cc3c(cc(CNC4(C)CCC4)cc3C(F)(F)F)C2=O)c1 [Compound 253, (S)-2-(3-(1-(4-methyl-4H-1,2,4-triazol-3-yl)-2-(tetrahydro-2H-pyran-4-yl)ethyl)phenyl)-6-(((1-methylcyclobutyl)amino)methyl)-4-(trifluoromethyl)isoindolin-1-one]	0.12	1.1x	0.14	–	–
Cn1cnnc1[C@@H](c1cccc(N2Cc3c(cc(CNC4(C)CCC4)cc3C(F)(F)F)C2=O)c1)C1CCCCC1 [Compound 250, (R)-2-(3-(cyclohexyl(4-methyl-4H-1,2,4-triazol-3-yl)methyl)phenyl)-6-(((1-methylcyclobutyl)amino)methyl)-4-(trifluoromethyl)isoindolin-1-one]	3.1	1.2x	3.6	–	–
Cn1cnnc1[C@@H](OC1CCC1)c1cccc(N2Cc3c(cc(CNC4(C)CCC4)cc3C(F)(F)F)C2=O)c1 (single isomer, unassigned) [Compound 46]	≥ 20	(1.0x)	20	–	–
CC1(NCc2cc3c(c(C(F)(F)F)c2)CN(c2cccc([C@@H](c4nnc[nH]4)C4COC4)c2)C3=O)CCC1 (single isomer, unassigned) [Compound 441]	–	–	20	6.3	3.2
Cn1cnnc1[C@@H](c1cccc(N2Cc3c(cc(CNC4(C)CCC4)cc3C(F)(F)F)C2=O)c1)[C@@H]1CCS(=O)(=O)C1 (single isomer, unassigned) [Compound 438]	–	–	20	3	6.8
Cc1cnnn1[C@H](c1cccc(N2Cc3c(cc(CNC4(C)CCC4)cc3C(F)(F)F)C2=O)c1)C1COC1 (single isomer, unassigned) [Compound 136]	≥ 20	1.0x	20	–	–
Cn1cnnc1[C@@H](CC1CCS(=O)(=O)CC1)c1cccc(N2Cc3c(cc(CNC4(C)CCC4)cc3C(F)(F)F)C2=O)c1 [Compound 287, (S)-2-(3-(2-(1,1-dioxidotetrahydro-2H-thiopyran-4-yl)-1-(4-methyl-4H-1,2,4-triazol-3-yl)ethyl)phenyl)-6-(((1-methylcyclobutyl)amino)methyl)-4-(trifluoromethyl)isoindolin-1-one]	≥ 20	1.0x	20	–	–
Cn1cnnc1[C@H](C[C@@H]1CCOC1)c1cccc(N2Cc3c(cc(CNC4(C)CCC4)cc3C(F)(F)F)C2=O)c1 [Compound 275, 2-(3-((R)-1-(4-methyl-4H-1,2,4-triazol-3-yl)-2-((R)-tetrahydrofuran-3-yl)ethyl)phenyl)-6-(((1-methylcyclobutyl)amino)methyl)-4-(trifluoromethyl)isoindolin-1-one]	≥ 20	1.0x	20	–	–
Cn1cnnc1[C@@H](C[C@@H]1COCCO1)c1cccc(N2Cc3c(cc(CNC4(C)CCC4)cc3C(F)(F)F)C2=O)c1 [Compound 296, 2-(3-((S)-2-((R)-1,4-dioxan-2-yl)-1-(4-methyl-4H-1,2,4-triazol-3-yl)ethyl)phenyl)-6-(((1-methylcyclobutyl)amino)methyl)-4-(trifluoromethyl)isoindolin-1-one]	8	2.0x	16	–	–
CC1(NCc2cc3c(c(C(F)(F)F)c2)CN(c2cccc([C@H](c4nnc[nH]4)C4COC4)c2)C3=O)CCC1 (single isomer, unassigned) [Compound 440]	–	–	0.4	0.066	6.0
Cn1cnnc1[C@H](CC1CCS(=O)(=O)CC1)c1cccc(N2Cc3c(cc(CNC4(C)CCC4)cc3C(F)(F)F)C2=O)c1 [Compound 286, (R)-2-(3-(2-(1,1-dioxidotetrahydro-2H-thiopyran-4-yl)-1-(4-methyl-4H-1,2,4-triazol-3-yl)ethyl)phenyl)-6-(((1-methylcyclobutyl)amino)methyl)-4-(trifluoromethyl)isoindolin-1-one]	≥ 20	1.0x	20	–	–
Cn1cnnc1C1(c2cccc(N3Cc4c(cc(CNC5(C)CCC5)cc4C(F)(F)F)C3=O)c2)CC2(CN(S(C)(=O)=O)C2)C1 [Compound 98, 2-(3-(6-(4-methyl-4H-1,2,4-triazol-3-yl)-2-(methylsulfonyl)-2-azaspiro[3.3]heptan-6-yl)phenyl)-6-(((1-methylcyclobutyl)amino)methyl)-4-(trifluoromethyl)isoindolin-1-one]	1.3	5.8x	7.5	–	–
Cn1cnnc1[C@]1(c2cccc(N3Cc4c(cc(CNC5(C)CCC5)cc4C(F)(F)F)C3=O)c2)C[C@H](S(C)(=O)=O)C1 [Compound 326, 2-(3-((1s,3s)-1-(4-methyl-4H-1,2,4-triazol-3-yl)-3-(methylsulfonyl)cyclobutyl)phenyl)-6-(((1-methylcyclobutyl)amino)methyl)-4-(trifluoromethyl)isoindolin-1-one]	16	1.2x	20	–	–
Cn1cnnc1[C@@H](c1cccc(N2Cc3c(cc(CNCC4(C)CC4)cc3C(F)(F)F)C2=O)c1)C1COC1 (single isomer, unassigned) [Compound 465]	–	–	0.012	0.0066	1.8
Cn1cnnc1[C@H](c1cccc(N2Cc3c(cc(CNC4(C)CCC4)cc3C(F)(F)F)C2=O)c1)C1CCCCC1 (single isomer, unassigned) [Compound 251]	0.88	1.0x	0.89	–	–
Cn1cnnc1[C@H](c1cccc(N2Cc3c(cc(CNC4(C)CCC4)cc3C(F)(F)F)C2=O)c1)C1CC2(COC2)C1 [Compound 121, (S)-2-(3-((4-methyl-4H-1,2,4-triazol-3-yl)(2-oxaspiro[3.3]heptan-6-yl)methyl)phenyl)-6-(((1-methylcyclobutyl)amino)methyl)-4-(trifluoromethyl)isoindolin-1-one]	11	1.7x	20	–	–
Cn1cnnc1[C@@H](c1cccc(N2Cc3c(cc(CNC4(C)CCC4)cc3C(F)(F)F)C2=O)c1)C1CC(OCC(F)F)C1 (single isomer, unassigned) [Compound 261]	1.3	3.5x	4.5	–	–
CCOC1CC([C@H](c2cccc(N3Cc4c(cc(CNC5(C)CCC5)cc4C(F)(F)F)C3=O)c2)c2nncn2C)C1 (single isomer, unassigned) [Compound 264]	5.1	3.9x	≥ 20	–	–
Cn1cnnc1[C@@H](c1cccc(N2Cc3c(cc(CN[C@H]4[C@@H]5COC[C@@H]54)cc3C(F)(F)F)C2=O)c1)C1COC1 (single isomer, unassigned) [Compound 472]	–	–	0.042	0.013	3.2
Cn1cnnc1[C@]1(c2cccc(N3Cc4c(cc(CNC5(C)CCC5)cc4C(F)(F)F)C3=O)c2)C[C@H](OC(F)(F)F)C1 [Compound 350, 2-(3-((1s,3s)-1-(4-methyl-4H-1,2,4-triazol-3-yl)-3-(trifluoromethoxy)cyclobutyl)phenyl)-6-(((1 methylcyclobutyl)amino)methyl)-4-(trifluoromethyl)isoindolin-1-one]	0.016	4.8x	0.077	–	–
Cn1cnnc1[C@H](CC1COC1)c1cccc(N2Cc3c(cc(CNC4(C)CCC4)cc3C(F)(F)F)C2=O)c1 [Compound 245, (R)-2-(3-(1-(4-methyl-4H-1,2,4-triazol-3-yl)-2-(oxetan-3-yl)ethyl)phenyl)-6-(((1-methylcyclobutyl)amino)methyl)-4-(trifluoromethyl)isoindolin-1-one]	0.049	2.2x	0.11	–	–
Cn1cnnc1[C@]1(c2cccc(N3Cc4c(cc(CNC5(C)CCC5)cc4C(F)(F)F)C3=O)c2)C[C@@H](S(C)(=O)=O)C1 [Compound 325, 2-(3-((1r,3r)-1-(4-methyl-4H-1,2,4-triazol-3-yl)-3-(methylsulfonyl)cyclobutyl)phenyl)-6-(((1-methylcyclobutyl)amino)methyl)-4-(trifluoromethyl)isoindolin-1-one]	11	1.9x	20	–	–
CCOc1cc([C@]2(c3nncn3C)C[C@H](OC)C2)cc(N2Cc3c(cc(CNC4(C)CCC4)cc3C(F)(F)F)C2=O)n1 [Compound 77, 2-(6-ethoxy-4-((1R,3R)-3-methoxy-1-(4-methyl-4H-1,2,4-triazol-3-yl)cyclobutyl)pyridin-2-yl)-6-(((1-methylcyclobutyl)amino)methyl)-4-(trifluoromethyl)isoindolin-1-one]	0.0082	(1.0x)	0.0082	–	–
COc1cc([C@H](c2nncn2C)C2COC2)cc(N2Cc3c(cc(CNC4(C)CCC4)cc3C(F)(F)F)C2=O)c1 (single isomer, unassigned) [Compound 338]	3.8	1.6x	6	–	–
Cn1cnnc1[C@H](c1cccc(N2Cc3c(cc(CNC4(C)CCC4)cc3C(F)(F)F)C2=O)c1)N1CC(F)(F)C1 (single isomer, unassigned) [Compound 56]	1	(6.7x)	6.7	–	–
Cc1cc([C@H](c2nncn2C)C2COC2)cc(N2Cc3c(cc(CNC4(C)CCC4)cc3C(F)(F)F)C2=O)c1 (single isomer, unassigned) [Compound 332]	16	1.3x	20	–	–
Cn1cnnc1[C@@](F)(c1ccccc1)c1cccc(N2Cc3c(Cl)cc(CNC4(C)CCC4)cc3C2=O)c1 (single isomer, unassigned) [Compound 322]	10	2.0x	20	–	–
